Test results published in US20140235500A1, “HIGH THROUGHPUT INSTRUMENTATION TO SCREEN CELLS AND PARTICLES BASED ON THEIR MECHANICAL PROPERTIES” (The Regents of the University of California, priority 2011, published 2014).

How the values were obtained:
HL60 cells = test: High throughput mechanical screening (HTMS): cell passage through porous membrane under applied pressure; format: cell-based, human; conditions: for cell deformability: FIG. 27
Text: An initial prototype device (see, e.g., FIGS. 9-16) was machined out of polymethylmethacrylate (McMaster Carr) in the format of a 96-well plate containing: a porous membrane sandwiched between a bottom, multiwell collection plate, and a top loading plate. A pressure chamber seals the device and interfaces with a compressed air tank (see, e.g., FIG. 17).
In the initial prototype device, we use track-etched, polycarbonate membranes with 5 μm pore size (Millipore). To minimize adhesion, surface treatment with 10 mg/mL bovine serum albumin was performed prior to the experiment. To load the device, cells were deposited on top of the porous membrane in each individual well. The optimal loading density of cells was established iteratively with detection: a loading density of ˜10^6 cells/mL was optimal given the estimated lower detection limit of 10^2 cells/mL using a flow cytometer.
Once the device was loaded, the pressure chamber lid was placed on top to create a pressure-tight seal, and tubing was connected to a tank of compressed air with 5% CO2 that was outfitted with a pressure gauge (0-30 psi, 0.2 psi resolution, Airgas). An electro-pneumatic regulator (0-20 psi output, Omega) enabled precise control of the magnitude and duration of applied pressure for sub-second periods of time via control through LabVIEW. Pressures between 5-10 psi were estimated to generate ˜kPa-scale stresses required to deform cells with elastic moduli in the kPa range.
After applying pressure to induce deformation of cells through the pores, the number of passaged cells was counted. We used a flow cytometer to count cells in the individual wells of a 96-well plate using scattered light (forward versus side scatter) as a signal (LSRII flow cytometer, BD Biosciences). An entire 96-well plate was counted within 15 minutes.
(§1) As shown in FIG. 27 the effect of various anti-cancer drugs (e.g., cytochalisin D, paclitaxel, daunorubicin, colchicine) can readily be detected using the HTMS systems described herein. […] Without being bound by a particular theory, it is believed that that the changes in mechanical properties are produced by the action of the drugs on cytoskeletal elements (e.g., actin filaments). Similarly, as shown in FIG. 28 the HTMS measurements made herein can be used to detect dose-response effects of various agents (e.g., anti-cancer drugs) on cells. In this experiment, HL60 cells were treated with 10.0 μM colchicine. Without being bound by a particular theory it is believed that colchicine perturbs microtubules at low concentrations and stabilizes F-actin at high concentrations.

OVCAR5 cells = test: HTMS measurement of drug treatment on ovarian cancer cells; format: cell-based; conditions: OVCAR5-CIS+ cells treated for <1 day; 0.4 psi for 35 s; FIG. 32
Text: FIG. 32 illustrates the use of HTMS measurements to detect the effects of drug treatment on cancer cells. Data: 0.4 psi for 35 s.
In addition, the HTMS systems described herein can be used to monitor the progression of drug treatments. Ovarian cancer cells: SKOV3 and OVCAR5 are cisplatin sensitive, while SKOV3-CISR and OVCAR5-CISR are cisplatin resistant.

[1] = system: adherent murine mammary carcinoma cells (67NR); test: HTMS measurement on adherent carcinoma cells; format: cell-based; conditions: 67NR cells; FIG. 29
Text: FIG. 29 illustrates the effect of various drugs on adherent murine mammary carcinoma cells (67NR).
as §1

[2] = system: human promyelocytic leukemia (HL60) cells; test: Flow of cells through constricted microfluidic channels (deformation time); format: cell-based; conditions: HL60 cells treated with drug to perturb actin network; narrow constrictions
Text: To dissect the contributions of nuclear physical properties to whole cell deformability, human promyelocytic leukemia (HL60) cells provide a convenient model system. These cells can be readily differentiated into neutrophil-type cells in vitro. During this process of granulopoiesis, the cell nucleus undergoes major changes in morphology as it transitions from an ovoid to an irregular, multi-lobed structure.
In addition to these induced changes in nuclear morphology, cytoskeletal protein expression is also altered. Levels of actin increase during differentiation, and cortical actin is implicated in the resistance of these cells to out-of-plane deformations. To determine the contributions of actin to cellular deformation, cells were treated with a drug (cytochalasin B) to perturb their actin network. […] One determinant of nucleus shape stability is the intermediate filament type protein, lamin A. This protein is a major constituent of the meshwork underlying the nuclear envelope, and its expression levels are directly linked to nuclear mechanical properties.

CC1=C(/C=C/C(C)=C/C=C/C(C)=C/C(=O)O)C(C)(C)CCC1 [ATRA]
pressure dependence of cell passage versus HL60 cells (HL60 cells; neutrophil-type (ATRA-treated) cells, FIG. 25): different pressure dependence

N.N.[Cl][Pt][Cl] [cisplatin]
difference in HTMS measurement compared with OVCAR5 cells (OVCAR5 cells): no apparent difference

COc1cc2c(c(OC)c1OC)-c1ccc(OC)c(=O)cc1[C@@H](NC(C)=O)CC2 [colchicine]
cell deformability (HL60 cells; HL60 cells, 10.0 μM): decrease the deformability
cell stiffness (dose response) (HL60 cells; HL60 cells, low drug concentration, FIG. 28): increased cell stiffness
dose response effects on cell mechanical properties [1]: Dose response effects of colchicine are also observed

C=C1[C@@H](C)[C@H]2[C@H](Cc3ccccc3)NC(=O)[C@]23OC(=O)/C=C/[C@H](O)CCC[C@@H](C)C/C=C/[C@H]3[C@@H]1O [cytochalasin B]
difference in cellular deformation between treated and non-treated controls [2]: no detectable difference

C=C1[C@@H](C)[C@H]2[C@H](Cc3ccccc3)NC(=O)[C@]23[C@H](OC(C)=O)/C=C/[C@@](C)(O)C(=O)[C@@H](C)C/C=C/[C@H]3[C@@H]1O [cytochalasin D]
cell deformability (HL60 cells; HL60 cells, 2.0 μM): increase cell deformability

COc1cccc2c1C(=O)c1c(O)c3c(c(O)c1C2=O)C[C@@](O)(C(C)=O)C[C@@H]3O[C@H]1C[C@H](N)[C@H](O)[C@H](C)O1 [dauorubicin]
cell deformability (HL60 cells; HL60 cells, 1.0 μM): decrease the deformability

CC(=O)O[C@H]1C(=O)[C@@]2(C)[C@H]([C@H](OC(=O)c3ccccc3)[C@]3(O)C[C@H](OC(=O)[C@H](O)[C@@H](NC(=O)c4ccccc4)c4ccccc4)C(C)=C1C3(C)C)[C@]1(OC(C)=O)CO[C@@H]1C[C@@H]2O [paclitaxel]
cell deformability (HL60 cells; HL60 cells, 1.5 μM): increase cell deformability
